≈ marks a conversion by molar mass, not a printed value. Like-named read-outs stand apart in the source and are kept apart here.
Tests used:
InhA = InhA (Mycobacterium tuberculosis, UniProt P9WGR1); assay: InhA enzyme inhibition IC50 (NADH oxidation at 340 nm, DD-CoA substrate); format: biochemical, M. tuberculosis
Description: IC50 values were determined by measuring the enzyme activity at different inhibitor concentrations. The experimental data were analyzed using Equation 1, where I is the inhibitor concentration and Y is fraction activity. Y=1/(1+[I]/IC50) (1)
All experiments were carried out on a CARY-100 Bio (Varian) spectrophotometer at 25° C. The buffer used was 30 mM PIPES, 150 mM NaCl, pH 6.8. Kinetic parameters were determined spectrophotometrically by following the oxidation of NADH to NAD^+ at 340 nm (ε=6.3 nM^−1 cm^−1). Trans-2-dodecenoyl-CoA (DD-CoA) was used as a substrate. Two sets of conditions were used for the IC50 determinations.
For inhibitors with IC50 values above 0.2 μM, reaction mixtures contained 250 μM NADH, 74 nM InhA, and 25 μM DD-CoA. […] In each case, the inhibitor concentration was varied over the range of 0-200 μM.

[1] = tested on: Mycobacterium tuberculosis strain H37Rv; assay: MIC99 microplate dilution growth inhibition; format: cell-based; settings: M. tuberculosis H37Rv, 7H9 broth, 37° C., 3-5 days, lowest concentration inhibiting visible growth
[2] = InhA, 250 μM NADH, DD-CoA substrate, 25° C., pH 6.8, read-out: IC50

InhA, sequence (P9WGR1 whole entry, looked up): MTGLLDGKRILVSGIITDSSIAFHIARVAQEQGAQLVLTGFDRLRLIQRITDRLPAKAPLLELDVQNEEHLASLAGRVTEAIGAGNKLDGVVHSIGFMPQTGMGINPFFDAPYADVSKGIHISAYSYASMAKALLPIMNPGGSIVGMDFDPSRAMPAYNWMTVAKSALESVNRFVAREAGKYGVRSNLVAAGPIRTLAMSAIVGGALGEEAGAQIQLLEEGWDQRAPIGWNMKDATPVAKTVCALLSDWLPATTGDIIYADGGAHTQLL

SMILES	IC50 (InhA; [2]) [nM]	MIC99 [1] [µM]	IC50 (InhA) [nM]
CCCCCCCCc1ccc(Oc2ccccc2)c(O)c1 [-(n-C8H17), 5-octyl-2-phenoxyphenol]	5		
CCCCc1ccc(Oc2ccccc2)c(O)c1 [-(n-C4H9), 5-butyl-2-phenoxyphenol]	80	0.93 (≈ 0.225 µg/mL)	
CCc1ccc(Oc2ccccc2)c(O)c1 [—C2H5, 5-ethyl-2-phenoxyphenol]	2000	3.75 (≈ 0.803 µg/mL)	
CCCCCc1ccc(Oc2ccccc2)c(O)c1 [-(n-C5H11), 5-pentyl-2-phenoxyphenol]	17	0.93 (≈ 0.238 µg/mL)	
CCCCCCc1ccc(Oc2ccccc2)c(O)c1 [-(n-C6H13), 5-hexyl-2-phenoxyphenol]		0.93 (≈ 0.251 µg/mL)	10

Reference: patent US7687547B2, “Diphenyl ether antimicrobial compounds” (Research Foundation of State University of New York, priority 2004, dated 2010)
